Results from article PMC10683472, “Deep Learning-Driven Library Design for the De Novo Discovery of Bioactive Thiopeptides” (ACS Central Science, 2023).
*1 amine or outer side, *2 acyl side, *3 side chain or, on linkers, in order; H or OH if unused. Where a SMILES comes first, the peptide text is derived from it. Bridges are numbered along the chain shown (N, C = ends). [ ]: non-standard residue; d: D form. X2 = C=C(N[*:2])c1nc(-c2nc(-c3nc(C(=O)OC)cs3)ccc2C(=O)[*:1])cs1; Nle = CCCC[C@H](N)C(=O)O; Dha = C=C(N)C(=O)O

Columns and labels:
TLR10 [1] = target: T1, TLR10 (Homo sapiens, UniProt Q9BXR5); assay: Single-round mRNA display binding assay (qPCR), TLR10; details: ratio of cDNA recoveries (qPCR), TLR10 pulldown over beads only, single-round selection
T1 sequence (Q9BXR5 20-576): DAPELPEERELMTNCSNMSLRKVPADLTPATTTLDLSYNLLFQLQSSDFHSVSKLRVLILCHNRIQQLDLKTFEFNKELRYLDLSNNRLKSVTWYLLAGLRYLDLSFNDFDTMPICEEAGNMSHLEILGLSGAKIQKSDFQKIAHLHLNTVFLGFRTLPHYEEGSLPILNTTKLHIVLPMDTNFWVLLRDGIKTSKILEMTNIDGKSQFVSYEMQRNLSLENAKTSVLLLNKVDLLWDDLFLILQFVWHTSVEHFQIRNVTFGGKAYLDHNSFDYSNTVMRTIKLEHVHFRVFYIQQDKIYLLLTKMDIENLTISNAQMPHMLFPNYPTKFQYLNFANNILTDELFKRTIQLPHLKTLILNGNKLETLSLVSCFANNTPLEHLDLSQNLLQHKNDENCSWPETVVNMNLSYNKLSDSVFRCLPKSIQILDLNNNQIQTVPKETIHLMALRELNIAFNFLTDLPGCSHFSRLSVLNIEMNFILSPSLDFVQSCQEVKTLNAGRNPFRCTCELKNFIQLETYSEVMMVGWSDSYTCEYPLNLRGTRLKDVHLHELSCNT

TLR10 [2] = target: T1, TLR10; assay: mRNA display affinity selection against TLR10, NGS abundance; assay type: binding; design: Chimera protein (extracellular domain, amino acid 20-576;); Fc (chimera); purchased R&D system #6619-TR-050; details: for rank in pulldown(–) / rank in pulldown(+): TLR10 selection, NGS abundance rank; for rank in pulldown(+): –: not found in the final pulldown(+) libraries at the sequenced depth
Serum stability assay = assay type: in vitro ADME; details: pH 7.6; human serum, 37 °C, LC/MS; read-out: serum stability τ1/2 (converted)
Method: Next, we tested the metabolic stability of the discovered thiopeptides. The compounds were incubated in human serum at 37 °C in the presence of an internal control, and the amounts of the remaining analytes were quantified by LC/MS (Figures S27 and 28). […] At the other extreme, IR11 rapidly degraded in human serum with τ1/2 = 0.5 h. […]
Kinetic parameters and affinities of the […]
2.12. Thiopeptide metabolic stability experiments
The mixtures were stirred
well and transferred to a 37 °C thermostat. […]

[3] = target: T2, Human TLR10 Fc Chimera protein (extracellular domain) (Homo sapiens, UniProt Q9BXR5); assay: Surface plasmon resonance binding to TLR10; details: SPR
T2 construct: Chimera protein (extracellular domain, amino acid 20-576;); Fc (chimera); purchased R&D system #6619-TR-050
T2 sequence (Q9BXR5 20-576): T1 sequence (Q9BXR5 20-576)
Method: Reagents were purchased from Nacalai Tesque, Wako Pure Chemical Industries, Sigma-Aldrich Japan, or TCI Chemicals and were used as received. […]
Anti-HA magnetic beads were from Pierce Thermo […]
2000c spectrophotometer (Thermo Scientific) equipped with a 5 mm pathlength quartz cuvette using extinction coefficient values calculated with ExPASy ProtParam tool (https://web.expasy.org/protparam). […]
Biochemical measurements (sections 2.10 – 2.14) were performed in triplicate or more. Most […]
determination of biophysical parameters involved cell assay (CP50 and IC50), reported are standard errors of the fit; otherwise, error bars are standard deviations. […]

[4] = TLR10 selection pulldown (-), Top100 selection hits, NGS

Structure (SMILES)	display P/N ratio (TLR10 [1])	rank in pulldown(–) (TLR10 [2])	rank in pulldown(+) (TLR10 [2])	half-life at 10 µM (Serum stability assay) [min]	koff [3] [s⁻¹]	kon [3] [M⁻¹ s⁻¹]	fraction of the pulldown(−) population (TLR10 [2]; TLR10 pulldown(−) selection, NGS) [%]	Library fraction (TLR10 [2]; [4])	Raw reads (TLR10 [2]; [4])
C=C1NC(=O)[C@H](Cc2c[nH]c3ccccc23)NC(=O)CNC(=O)[C@H](C(C)C)NC(=O)[C@H](CC(N)=O)NC(=O)CNC(=O)CNC(=O)[C@H](Cc2ccc(O)cc2)NC(=O)[C@@H]2CCCN2C(=O)[C@H](CC(N)=O)NC(=O)[C@H]([C@@H](C)O)NC(=O)[C@H](Cc2c[nH]c3ccccc23)NC(=O)c2ccc(-c3nc(C(=O)OC)cs3)nc2-c2csc1n2 [TL1] (HELM PEPTIDE1{W.T.N.P.Y.G.G.N.V.G.W}|CHEM1{[C=C(N[*:2])c1nc(-c2nc(-c3nc(C(=O)OC)cs3)ccc2C(=O)[*:1])cs1]}$PEPTIDE1,CHEM1,1:R1-1:R1|PEPTIDE1,CHEM1,11:R2-1:R2$$$V2.0; bridges inferred)	127	1	3	276 ± 18					
C=C1NC(=O)[C@H](Cc2ccccc2)NC(=O)[C@H](C)NC(=O)[C@H](C(C)C)NC(=O)[C@H](CCCCN)NC(=O)[C@H](CCCNC(=N)N)NC(=O)[C@H](CCC(N)=O)NC(=O)[C@H](CC(C)C)NC(=O)[C@H](Cc2c[nH]c3ccccc23)NC(=O)[C@H](Cc2ccccc2)NC(=O)[C@H](CO)NC(=O)[C@H]([C@@H](C)CC)NC(=O)[C@H](CCCC(N)=O)NC(=O)[C@H](Cc2c[nH]c3ccccc23)NC(=O)c2ccc(-c3nc(C(=O)OC)cs3)nc2-c2csc1n2 [TL3] (HELM PEPTIDE1{W.[O=C([C@H](CCCC(=O)[*:3])N[*:1])[*:2]].I.S.F.W.L.Q.R.K.V.A.F}|PEPTIDE2{[am]}|CHEM1{[C=C(N[*:2])c1nc(-c2nc(-c3nc(C(=O)OC)cs3)ccc2C(=O)[*:1])cs1]}$PEPTIDE1,PEPTIDE2,2:R3-1:R1|PEPTIDE1,CHEM1,1:R1-1:R1|PEPTIDE1,CHEM1,13:R2-1:R2$$$V2.0; bridges inferred)	186	2		192 ± 12	0.0056	6270	8.1	0.095	11388
C=C1NC(=O)[C@H](Cc2ccccc2)NC(=O)[C@H](C)NC(=O)[C@H]([C@@H](C)CC)NC(=O)[C@H](CCCCN)NC(=O)[C@H](CC(N)=O)NC(=O)[C@H](CCC(N)=O)NC(=O)[C@H](CC(N)=O)NC(=O)[C@H]([C@@H](C)O)NC(=O)[C@H](Cc2ccccc2)NC(=O)[C@H](CCCNC(=N)N)NC(=O)[C@H]([C@@H](C)CC)NC(=O)[C@H]([C@@H](C)O)NC(=O)[C@H](Cc2c[nH]c3ccccc23)NC(=O)c2ccc(-c3nc(C(=O)OC)cs3)nc2-c2csc1n2 [TL4] (HELM PEPTIDE1{W.T.I.R.F.T.N.Q.N.K.I.A.F}|CHEM1{[C=C(N[*:2])c1nc(-c2nc(-c3nc(C(=O)OC)cs3)ccc2C(=O)[*:1])cs1]}$PEPTIDE1,CHEM1,1:R1-1:R1|PEPTIDE1,CHEM1,13:R2-1:R2$$$V2.0; bridges inferred)	975	3	7	264 ± 18	0.033	47500			
C=C1NC(=O)[C@H]([C@@H](C)CC)NC(=O)[C@H](C)NC(=O)[C@H](CC(C)C)NC(=O)[C@H](CCCCN)NC(=O)[C@H](CO)NC(=O)[C@H](CCC(N)=O)NC(=O)[C@H](CC(C)C)NC(=O)[C@H](CCCNC(=N)N)NC(=O)[C@H](Cc2ccccc2)NC(=O)[C@H](CC(C)C)NC(=O)[C@H](CCCC)NC(=O)[C@H]([C@@H](C)O)NC(=O)[C@H](Cc2c[nH]c3ccccc23)NC(=O)c2ccc(-c3nc(C(=O)OC)cs3)nc2-c2csc1n2 [TL6] (HELM PEPTIDE1{W.T.[Nle].L.F.R.L.Q.S.K.L.A.I}|CHEM1{[C=C(N[*:2])c1nc(-c2nc(-c3nc(C(=O)OC)cs3)ccc2C(=O)[*:1])cs1]}$PEPTIDE1,CHEM1,1:R1-1:R1|PEPTIDE1,CHEM1,13:R2-1:R2$$$V2.0)	268	12		492 ± 72	0.0048	7650			
C=C1NC(=O)[C@H](Cc2ccc(O)cc2)NC(=O)[C@H](C)NC(=O)[C@H](C(C)C)NC(=O)[C@H](CCCCN)NC(=O)CNC(=O)[C@H](CC(C)C)NC(=O)[C@H](CCCNC(=N)N)NC(=O)[C@@H]2CCCN2C(=O)[C@H](Cc2ccccc2)NC(=O)[C@H](CCCC)NC(=O)[C@H](CCCC)NC(=O)[C@H]([C@@H](C)O)NC(=O)[C@H](Cc2c[nH]c3ccccc23)NC(=O)c2ccc(-c3nc(C(=O)OC)cs3)nc2-c2csc1n2 [TL9] (HELM PEPTIDE1{W.T.[Nle].[Nle].F.P.R.L.G.K.V.A.Y}|CHEM1{[C=C(N[*:2])c1nc(-c2nc(-c3nc(C(=O)OC)cs3)ccc2C(=O)[*:1])cs1]}$PEPTIDE1,CHEM1,1:R1-1:R1|PEPTIDE1,CHEM1,13:R2-1:R2$$$V2.0)	235	37	22	102 ± 6					
C=C1NC(=O)CNC(=O)[C@H]([C@@H](C)CC)NC(=O)[C@H]([C@@H](C)CC)NC(=O)CNC(=O)[C@H](CCC(N)=O)NC(=O)CNC(=O)[C@H](CCCC(N)=O)NC(=O)[C@H](Cc2c[nH]c3ccccc23)NC(=O)[C@H](C(C)C)NC(=O)[C@H]([C@@H](C)CC)NC(=O)[C@H](CC(N)=O)NC(=O)[C@H](CO)NC(=O)[C@H](Cc2c[nH]c3ccccc23)NC(=O)c2ccc(-c3nc(C(=O)OC)cs3)nc2-c2csc1n2 [TL10] (HELM PEPTIDE1{W.S.N.I.V.W.[O=C([C@H](CCCC(=O)[*:3])N[*:1])[*:2]].G.Q.G.I.I.G}|PEPTIDE2{[am]}|CHEM1{[C=C(N[*:2])c1nc(-c2nc(-c3nc(C(=O)OC)cs3)ccc2C(=O)[*:1])cs1]}$PEPTIDE1,PEPTIDE2,7:R3-1:R1|PEPTIDE1,CHEM1,1:R1-1:R1|PEPTIDE1,CHEM1,13:R2-1:R2$$$V2.0; bridges inferred)	352	4	1	282 ± 18					
C=C1NC(=O)[C@H](CCCC(N)=O)NC(=O)[C@H](Cc2ccc(O)cc2)NC(=O)[C@H](CC(C)C)NC(=O)[C@H](CCCC)NC(=O)[C@H](CC(N)=O)NC(=O)[C@H]([C@@H](C)O)NC(=O)[C@H](CCC(N)=O)NC(=O)[C@H](CCCCN)NC(=O)[C@H]([C@@H](C)CC)NC(=O)[C@H](CC(C)C)NC(=O)[C@H](CC(C)C)NC(=O)[C@H](C)NC(=O)[C@H](Cc2c[nH]c3ccccc23)NC(=O)c2ccc(-c3nc(C(=O)OC)cs3)nc2-c2csc1n2 [TL17] (HELM PEPTIDE1{W.A.L.L.I.K.Q.T.N.[Nle].L.Y.[O=C([C@H](CCCC(=O)[*:3])N[*:1])[*:2]]}|PEPTIDE2{[am]}|CHEM1{[C=C(N[*:2])c1nc(-c2nc(-c3nc(C(=O)OC)cs3)ccc2C(=O)[*:1])cs1]}$PEPTIDE1,PEPTIDE2,13:R3-1:R1|PEPTIDE1,CHEM1,1:R1-1:R1|PEPTIDE1,CHEM1,13:R2-1:R2$$$V2.0; bridges inferred)	737	9	10	360 ± 6	0.0067	18900			
C=C1NC(=O)[C@H]([C@@H](C)CC)NC(=O)[C@H](CO)NC(=O)[C@H](CC(=O)O)NC(=O)[C@H](CCCNC(=N)N)NC(=O)[C@H](C)NC(=O)[C@H](CCCC)NC(=O)C(=C)NC(=O)CNC(=O)[C@@H]2CCCN2C(=O)[C@H](Cc2c[nH]c3ccccc23)NC(=O)c2ccc(-c3nc(C(=O)OC)cs3)nc2-c2csc(n2)C(=C)NC1=O [TL18] (WPG[Dha][Nle]ARDSI[Dha]; linker N-C via X2)	380	10	13	150 ± 6					
